A word on the IC50: it is the concentration that inhibits the measured activity by half. For orientation: AUC means concentration integrated over time. Lower therefore signals less exposure. One may read the Cmax as the maximum level reached in the sampled fluid or tissue. One may read the MRT inf as the average time that molecules of a dose stay in the body. What is called half-life is how long it takes for the measured level to halve. Read a low half-life as fast loss.

Data set [1] concerns KURAMOCHI ovarian cancer xenograft model. The data set is described as follows: In vivo efficacy study in KURAMOCHI ovarian cancer xenograft model. To be noted: for TGI (%) / Tumor volume (mm^3): PO; for Tumor volume (mm^3): Mean ± SEM.
Excerpt: (§1) NOD SCID mice, female, SPF grade, purchased from Beijing Anikeepter Biotech Co., Ltd.
KURAMOCHI cells, purchased from JCRB.
(§2) The culture medium was changed weekly. […] Tumor cells in the logarithmic growth phase were used for in vivo implantation.
(§3) A total of 35 mice were inoculated: 35 mice for the efficacy study; 15 mice for the PK/PD study; 10 mice remaining after grouping. When the tumor volume reached approximately 150 to 200 mm^3, the mice were grouped for dosing to initiate the efficacy study. Specifically, they were divided into 7 groups, with 5 mice per group. The remaining animals were grouped for dosing when the tumor volume reached approximately 250 mm^3.
(§4) b. Treatment was initiated after grouping, with a dosing volume of 10 µL/g body weight via oral administration (PO). Animals were weighed daily before dosing and administered once daily for 21 consecutive days. Tumor diameters were measured twice weekly. c. Tumor volume (TV) was measured twice weekly to monitor changes in tumor size and growth rate. Tumor volume was calculated as: V = 1/2 × a × b^2, where a and b represent tumor length and tumor width, respectively. The growth inhibitory effect of compounds on tumor tissue was evaluated using tumor growth inhibition (TGI (%)). […] Data for both the treatment group and the negative control group were collected on the same day. d. The mice were weighed during tumor measurements. The relationship between changes in body weight and time of treatment was recorded. The survival and health status of the mice, including general conditions such as activity level and food intake during the dosing period, were also observed. […] Treatment was resumed when the body weight recovered to within 10% of baseline. […] Nutritional gel supplementation was provided during treatment discontinuation. e. At the study endpoint, the mice were euthanized.
The test system of another data set is KURAMOCHI cells. The data set is described as follows: Inhibition of proliferation of KURAMOCHI cells (CellTiter-Glo, intracellular ATP). The format is cell-based. To be noted: 168 h, incubated for 7 days, read-out: IC50 against KURAMOCHI cells. In a few lines: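 KURAMOCHI cells seeded at 4000/well, incubated overnight, then treated with 9-point 1:4 compound series from 10 µM (0.5% DMSO) for 7 days at 37°C, 5% CO2. Viability read by CellTiter-Glo luminescence; inhibition normalised to medium-only (100%) and DMSO (0%) controls, IC50 from variable-slope four-parameter fit.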
For orientation: ATP-based viability assays read luminescence as a measure of living cells.

In the next data set the target is T1, PARG (Homo sapiens, UniProt Q86W56).
T1 construct: made in house
The data set is described as follows: Enzymatic inhibitory activity against PARG, HTRF assay. The format is biochemical. To be noted: HTRF; PARylated PARP1 protein as substrate; 60 minutes at room temperature; read-out: IC50 against PARG enzyme. In a few lines:
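Purified PARG pre-incubated with compounds (top 10 µM, 3- to 5-fold dilutions, duplicates) 15 min at room temperature, then PARylated PARP1 substrate added for 60 min in Tris pH 7.4 buffer with DTT, EDTA/EGTA, KCl. HTRF (His-Tb/SA-XL665) read-out; IC50 by four-parameter logistic fit, normalised to DMSO and control-inhibitor wells.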

For data set [2], the system named is KURAMOCHI ovarian cancer xenograft model. To be noted: mouse, in vivo, po.
Excerpt: as §1
KURAMOCHI cells, purchased from JCRB.
as §2, §3, §4
Data set [3] is described as follows: Pharmacokinetic evaluation in BALB/c nude mice (PO). The format is in vivo. The settings on record: mouse, in vivo, 30 mg/kg. The protocol: Using mice as test animals, the compounds of the present disclosure were administered via intravenous bolus and oral injection. Plasma samples were collected at specific time points. Compound concentrations in plasma were determined by LC-MS/MS, and PK parameters were calculated to characterize the pharmacokinetic behavior of the compounds of the present disclosure in plasma.
BALB/c nude mice, female, supplied by Jiangsu GemPharmatech Co., Ltd.
Dosing regimen for BALB/c nude mice: The PO (oral) experimental group consisted of 3 mice, which were administered at a dose of 30 mg/kg and a volume of 10 mL/kg. The dosing vehicle was 5% (v/v) DMSO/10% (v/v) Solutol/85% (v/v) saline.
Following administration, 0.025 mL of blood was collected via venipuncture at the following time points: 0.0833 (IV), 0.25, 0.5, 1, 2, 4, 8, and 24 hours. Blood samples were collected into EDTA-K2 tubes and centrifuged at 4°C and 2000 g for 10 minutes to separate plasma, which was stored at -80°C.
Mouse plasma processing: • 1) 15 µL of plasma was mixed with 200 µL of acetonitrile for protein precipitation. The mixture was vortexed and centrifuged for 15 minutes. • 2) The supernatant after processing was diluted with water and analyzed by LC/MS/MS to determine the concentration of the test compound.
Pharmacokinetic parameters were calculated using WinNonlin 6.1. Specifically, Cmax represents maximum plasma concentration, CL represents clearance, Vss represents volume of distribution at steady state, T1/2 represents terminal elimination half-life, MRTInf represents mean residence time, AUC represents area under the plasma concentration-time curve, and F represents bioavailability. Table 18: Pharmacokinetic parameters of the compounds of the present disclosure in CD-1 mice

[4] abbreviates: KURAMOCHI xenograft, oral administration.

Read-outs that look alike come from different tables or passages of the source.

T1 sequence (Q86W56 whole entry): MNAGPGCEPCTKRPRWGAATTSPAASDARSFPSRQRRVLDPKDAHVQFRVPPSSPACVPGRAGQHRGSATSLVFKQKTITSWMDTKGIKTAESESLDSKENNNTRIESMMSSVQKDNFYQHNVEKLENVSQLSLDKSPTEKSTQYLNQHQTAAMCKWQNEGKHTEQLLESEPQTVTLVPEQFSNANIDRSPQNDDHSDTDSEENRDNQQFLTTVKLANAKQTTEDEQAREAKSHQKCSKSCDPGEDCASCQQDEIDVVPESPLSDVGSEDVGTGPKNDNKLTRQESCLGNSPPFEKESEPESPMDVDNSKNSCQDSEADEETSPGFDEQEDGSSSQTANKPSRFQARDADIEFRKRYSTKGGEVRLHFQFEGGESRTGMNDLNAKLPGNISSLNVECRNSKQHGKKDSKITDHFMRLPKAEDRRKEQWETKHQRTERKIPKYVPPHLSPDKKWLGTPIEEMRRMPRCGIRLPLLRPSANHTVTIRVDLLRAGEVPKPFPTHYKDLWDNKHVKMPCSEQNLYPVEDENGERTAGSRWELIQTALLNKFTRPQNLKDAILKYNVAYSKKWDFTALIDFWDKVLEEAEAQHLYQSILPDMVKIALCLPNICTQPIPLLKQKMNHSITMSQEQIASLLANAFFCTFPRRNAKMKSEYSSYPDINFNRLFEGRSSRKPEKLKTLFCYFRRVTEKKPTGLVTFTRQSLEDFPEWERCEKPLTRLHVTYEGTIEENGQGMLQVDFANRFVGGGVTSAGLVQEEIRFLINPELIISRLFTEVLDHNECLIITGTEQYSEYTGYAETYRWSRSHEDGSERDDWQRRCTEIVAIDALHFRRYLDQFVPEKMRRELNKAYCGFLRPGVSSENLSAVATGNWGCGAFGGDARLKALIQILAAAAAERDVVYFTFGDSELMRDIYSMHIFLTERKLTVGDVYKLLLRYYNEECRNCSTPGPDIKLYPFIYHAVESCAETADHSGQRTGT

For the molecule `C[C@H]1CN(c2cc(S(=O)(=O)NC3(C)CC3)cc3c2n2ncnc2n3-c2nnc(C(F)F)s2)C[C@H](C)N1` [Compound 065M], in data set [1] (setting [4]), the “tolerability in mice (in words)” value is “good tolerability” and the “tumor growth inhibition (in words)” value was “significantly inhibited tumor growth”. Also, in data set [1] (30 mg/kg, QD × 16 days), the “TGI (%)” value was determined as 127% and the “Tumor volume (mm^3)” value is on record as 62 ± 6 mm^3. For the same molecule, the IC50 in the data set on KURAMOCHI cells stood at 3 nM. For the same molecule, the IC50 on PARG came to 1.4 nM.
Consider `C[C@H]1CN(c2cc(S(=O)(=O)NC3(C)CC3)cc3c2nc([C@@H]2CCCO2)n3-c2nnc(C(F)F)s2)C[C@H](C)N1` [Compound 077B2], for which, in data set [2], the “tolerability in mice (in words)” value was “good tolerability”. The “tumor growth inhibition (in words)” value in data set [1] (setting [4]) is recorded as “significantly inhibited tumor growth”. Moreover, the “TGI (%)” value in data set [1] (30 mg/kg, BID × 16 days) came to 127%; in data set [1] (100 mg/kg, QD × 16 days), 127%. Moreover, the “Tumor volume (mm^3)” value is 61 ± 9 mm^3 in data set [1] (30 mg/kg, BID × 16 days) and 57 ± 10 mm^3 in data set [1] (100 mg/kg, QD × 16 days). Also, the half-inhibitory concentration (IC50) in the data set with KURAMOCHI cells was determined as 3 nM; on PARG, 1.6 nM.
Regarding `C[C@H]1CN(c2cc(S(=O)(=O)NC3(C)CC3)cn3c(-c4nnc(C(F)F)s4)c([C@@H]4CCCO4)nc23)C[C@H](C)N1` [Compound 080B2], the IC50 with KURAMOCHI cells is 0.6 nM. For the same molecule, the IC50 on PARG was 0.4 nM. In data set [3], this molecule gave an AUC of 8.35 µM·h, a Cmax of 1870 nM, an MRT inf of 3.27 h and a half-life of 2.45 h.
